Results: US10183015B2, “Heterocyclic compounds and methods of use” (Medivation Technologies LLC, priority 2015, dated 2019)
“And” between values parts separate entries of the source, which are not always exact repeats. Identical values can stand only once.

Legend:
Format in all cases: in vivo
SCAP = experiment: Short-term Paigen-diet NASH mouse model: hepatic SCAP gene expression (RT-qPCR); conditions: liver, 21 days; for DDct: SCAP Dct relative to vehicle mean; for Dct: SCAP minus 18S; for 2DDct: SCAP relative expression to vehicle group, normalized to 18S; for SCAP: raw RT-qPCR value
Experimental: To investigate whether Compound #37 prevents the development of pathology associated with NASH and steatosis in an acute exploratory disease model, a study was conducted using a diet-induced acute liver steatosis model in mice. As described below, in this study, C57BL/6J mice were initiated on the Paigen diet and simultaneously treated with Compound #37 (5, 20, and 40 mg/kg/day) or vehicle control (20% HPβCD 10 mL/kg/day) by oral gavage for 21 days.
After acclimation, 8-week old male C57Bl/6J mice (Charles River) weighing about 25 g were randomized in 4 groups according their body weight and treated once daily around noon by oral gavage with vehicle, or Compound #37 at various for 21 days as follows: Group 1: vehicle-20% (2-hydroxypropyl)-β-cyclodextrin (HP-β-CD) (n=10); Group 2: Compound #37, 5 mg/kg (n=10) Group 3: Compound #37, 20 mg/kg (n=10) Group 4: Compound #37, 40 mg/kg (n=10). During the treatment period, body weight and food intake (measured over 24h) were measured 3 times per week and once a week, respectively. During the acclimation, all mice were fed a standard diet (Special Diets Services RM1 (E), product no. 801492) and tap water ad libitum. After the acclimation period, mice were fed until the end of the experiment with a 60% high fat Paigen diet (60 kcal % fat, 1.25% cholesterol, and 0.5% cholate; D11061901, Research Diet) and tap water ad libitum.
(§1) Gene expression analysis. Hepatic expression levels of genes involved in lipid metabolism (FAS, SREBP1, ACC1, SCD1), cholesterol metabolism (HMG-CoAR, LDLR), SREBP proteolysis (SCAP, INSIG1), ER stress (PERK), oxidative stress (NRF2), inflammation (MCP-1), and fibrosis (collagen 1α1) were quantified by RTqPCR. Expression level was normalized to 18S gene expression and relative expression to vehicle group was calculated with the […] method.

leptin = experiment: DIN mouse model: plasma leptin; conditions: for plasma leptin day 70: day 70, 20 mg/kg
Experimental: (§2) Male C57Bl/6J mice (8 weeks old) were housed in enriched ventilated cages (31×12.5×12.7 cm) throughout the experimental phase. Animals' cages litters were changed at least once a week. Animal were housed 5 per cage on inverted 12-hour light cycle (at 09:00 am lights off), 22±2° C. and 55±10% relative humidity. The acclimation period was 20 days. During the acclimation period, all mice were fed a standard diet (RM1 (E) 801492, SDS) and tap water ad libitum. After the acclimation period, mice were fed with the DIN diet (60% fat, cholesterol enriched) and fructose-enriched tap water ad libitum until the end of the experiment.
(§3) At 6 weeks of diet, mice were 4-hour fasted (09:00 am to 1:00 pm) and blood (150 μl/EDTA) was collected at 01:00 pm by retro-orbital bleeding under isoflurane anesthesia. Mice were then allocated in 2 homogenous groups (n=12/group) according to their plasma levels of ALT (average levels: 685U/L), AST (average levels: 627U/L) and HOMA-IR index (average value: 4.7), into 2 homogenous groups (see values at day 0 in Tables 15A and 15B ALT/AST and Tables 16A and 16B for HOMA-IR). Mice were then treated once daily by oral gavage with vehicle (Group 1) or Compound #37 at 20 mg/kg (Group 2) for 70 days.
To investigate whether Compound #37 improves pre-existing steatosis/NASH pathology, a study was conducted using a 16-week diet-induced NASH mouse model. In this model, mice develop steatosis that progresses with inflammation and fibrosis that mimic many of the observed pathologies in human nonalcoholic fatty liver disease (NAFLD) and NASH (Hebbard & George, 2010). For 6 weeks, mice were fed a high-fat, high-cholesterol diet and provided drinking water containing fructose to induce liver pathology (Charlton et al, 2011). […]

[1] = system: diet-induced NASH obese insulin resistant mice; experiment: DIN mouse model: liver Sirius Red staining (% labeling, collagen deposition); conditions: for Sirius red labeling: liver
Experimental: as §2, §3
Slides having a single hepatic lobe section stained with H&E and […] were digitized using a Nanozoomer from Hamamatsu. Sections were evaluated with knowledge of groups. In agreement with the unchanged hepatic triglycerides levels, oil red O staining and % labeling was not changed with Compound #37. A substantial reduction in Sirius Red labeling was also observed, leading to a 61% reduction (p<0.001 vs. vehicle) in % labeling.
To investigate whether Compound #37 improves pre-existing steatosis/NASH pathology, a study was conducted using a 16-week diet-induced NASH mouse model. In this model, mice develop steatosis that progresses with inflammation and fibrosis that mimic many of the observed pathologies in human nonalcoholic fatty liver disease (NAFLD) and NASH (Hebbard & George, 2010). […]

NRF2 = experiment: DIN mouse model: hepatic NRF2 gene expression; conditions: liver, 20 mg/kg group
Experimental: as §1, §2, §3
Hepatic expression levels of genes involved in lipid (FAS, SREBP1, ACC1, SCD1), cholesterol metabolism (HMG-CoAR, LDLR), in SREBP proteolysis (SCAP, INSIG1), in ER stress (PERK), oxidative stress (NRF2), and inflammation (MCP-1) were not changed. However, expression of collagen 1α1, involved in liver fibrosis, was reduced by 66% in mice treated with Compound #37 (p<0.05 vs. vehicle).

[2] = Compound #37 5 mg/kg, group mean, n=10
[3] = Compound #37 5 mg/kg, individual animals, 5 mg/kg
[4] = Compound #37 20 mg/kg, group mean, n=6
[5] = Compound #37 20 mg/kg, individual animals, 20 mg/kg
[6] = individual animals, vs vehicle mean, 20 mg/kg

CC(C)Cc1cc(-c2nc(-c3ccc(NS(=O)(=O)C(F)(F)F)cc3Cl)cs2)ccn1 [Compound 37, N-(3-chloro-4-(2-(2-isobutylpyridin-4-yl)thiazol-4-yl)phenyl)-1,1,1-trifluoromethanesulfonamide]
DDct (SCAP; [2]): 0.19
DDct (SCAP; [3]): −0.7 and 0.72 and −0.1 and −0.18 and 1.21 and 0.7 and 0.27 and −0.21 and −0.02 and 0.17
DDct (SCAP; [4]): 0.07
DDct (SCAP; [5]): 0.6 and 0.83 and 0.33 and −1.29 and 0.9 and −0.94
Dct (SCAP; [2]): 12.8
Dct (SCAP; [3]): 11.96 and 13.38 and 12.56 and 12.48 and 13.87 and 13.36 and 12.93 and 12.45 and 12.64 and 12.83
Dct (SCAP; [4]): 12.7
Dct (SCAP; [5]): 13.26 and 13.49 and 12.99 and 11.37 and 13.56 and 11.72
2DDct (SCAP; [2]): 0.94
2DDct (SCAP; [3]): 1.62 and 0.61 and 1.07 and 1.13 and 0.43 and 0.62 and 0.83 and 1.16 and 1.01 and 0.89
2DDct (SCAP; [4]): 1.15
2DDct (SCAP; [5]): 0.66 and 0.56 and 0.79 and 2.44 and 0.54 and 1.92
SCAP (SCAP; [2]): 25.1
SCAP (SCAP; [3]): 25.42 and 26.49 and 24.17 and 25.83 and 25.9 and 26.71 and 24.53 and 24.24 and 23.78 and 23.95
SCAP (SCAP; [4]): 24.9
SCAP (SCAP; [5]): 26.17 and 25.78 and 25.19 and 24.4 and 25.05 and 22.98
plasma leptin reduction (leptin; 20 mg/kg, end of the treatment period, vs. vehicle): 38%
plasma leptin day 70 (leptin; group mean, n 11): 265 pg/mL
plasma leptin day 70 (leptin; individual animals): 454 pg/mL and 330 pg/mL and 202 pg/mL and 280 pg/mL and 341 pg/mL and 144 pg/mL and 294 pg/mL and 46 pg/mL and 269 pg/mL and 374 pg/mL and 187 pg/mL
Sirius Red % labeling reduction ([1]; 20 mg/kg, 70 days, p<0.001 vs. vehicle): 61%
Sirius red labeling ([1]; 20 mg/kg group, mean, n 11): 0.7%
Sirius red labeling ([1]; 20 mg/kg, individual animals): 0.5% and 0.8% (4×) and 0.6% (2×) and 1.0% and 0.9% and 0.7% (2×)
NRF2 Dct (NRF2; individual animals, normalised to 18S, 20 mg/kg): 10.62 and 10.7 and 12.57 and 11.27 and 11.31 and 10.88 and 11.1 and 10.74 and 12.23 and 11.89 and 9.9
NRF2 2^DDct (NRF2; [6]): 1.34 and 1.27 and 0.35 and 0.85 and 0.83 and 1.12 and 0.96 and 1.23 and 0.44 and 0.56 and 2.21
NRF2 DDct (NRF2; [6]): −0.42 and −0.34 and 1.53 and 0.23 and 0.27 and −0.16 and 0.06 and −0.3 and 1.19 and 0.85 and −1.14
NRF2 (Ct) (NRF2; individual animals, 20 mg/kg): 23.17 and 23.25 (2×) and 25.41 and 23.7 and 23.66 and 23.47 and 22.83 and 23.73 and 23.44 and 22.25
NRF2 2^DDct (NRF2; mean, n 11): 1.01
NRF2 (Ct) (NRF2; mean, n 11): 23.5
NRF2 DDct (NRF2; mean, n 11): 0.16
NRF2 Dct (NRF2; mean, n 11): 11.2
